From patent US20060189608A1, “Methods for treating ocular angiogenesis, retinal edema, retinal ischemia, and diabetic retinopathy using selective RTK inhibitors” (Alcon, Inc., priority 2005, published 2006)

How the values were obtained:
[1] = target: FGFR; experiment: Kinase inhibition profile, related RTK; type: biochemical; settings: ATP concentration of 1 nM
[2] = target: IGFR (Homo sapiens, UniProt P08069); experiment: Kinase inhibition profile, non-related TK; type: biochemical; settings: ATP concentration of 1 nM
[3] = target: FYN (Homo sapiens, UniProt P06241); experiment: Kinase inhibition profile, non-related TK; type: biochemical; settings: ATP concentration of 1 nM
[4] = tested on: laser-induced choroidal neovascularization (CNV); experiment: Prevention of laser-induced CNV, intravitreal injection, mouse; type: in vivo, C57BL/6J mice; settings: for inhibition of CNV as compared to vehicle-injected eyes: 5 ul intravitreal immediately after laser, 14 days post-laser
Method: (§1) Methods. CNV was generated by laser-induced rupture of Bruch's membrane. Briefly, 4 to 5 week old male C57BL/6J mice were anesthetized using intraperitoneal administration of ketamine hydrochloride (100 mg/kg) and xylazine (5 mg/kg) and the pupils of both eyes dilated with topical ocular instillation of 1% tropicamide and 2.5% Mydfin®. One drop of topical cellulose (Gonioscopic®) was used to lubricate the cornea. A hand-held cover slip was applied to the cornea and used as a contact lens to aid visualization of the fundus. Three to four retinal burns were placed in randomly assigned eye (right or left eye for each mouse) using the Alcon 532 nm EyeLite laser with a slit 5 lamp delivery system. The laser burns were used to generate a rupture in Bruch's membrane, which was indicated ophthalmoscopically by the formation of a bubble under the retina. Only mice with laser burns that produced three bubbles per eye were included in the study. Bums were typically placed at the 3, 6, 9 or 12 o'clock positions in the posterior pole of the retina, avoiding the branch retinal arteries and veins.
(§2) Each mouse was randomly assigned into one of the following treatment groups: noninjected controls, sham-injected controls, vehicle-injected mice, or one of three RTKi-injected groups. Control mice received laser photocoagulation in both eyes, where one eye received a sham injection, i.e. a pars plana needle puncture. […] The intravitreal injection was performed immediately after laser photocoagulation. At 14 days post-laser, all mice were anesthetized and systemically perfused with fluorescein-labeled dextran. Eyes were then harvested and prepared as choroidal flat mounts with the RPE side oriented towards the observer. All choroidal flat mounts were examined using a fluorescent microscope. Digital images of the CNV were captured, where the CNV was identified as areas of hyperfluorescence within the pigmented background. Computerized image analysis was used to delineate and measure the two dimensional area of the hyperfluorescent CNV per lesion (um^2) for the outcome measurement. The median CNV area/burn per mouse per treatment group or the mean CNV area/burn per treatment group was used for statistical analysis depending on the normality of data distribution; P≦0.05 was considered significant.

[5] = tested on: existing laser-induced choroidal neovascularization (CNV); experiment: Laser-induced CNV, oral gavage, regression paradigm, mouse; type: in vivo; settings: for Mean CNV / Median CNV: regression
Method: as §1, §2
METHODS: CNV was generated by laser-induced rupture of Bruch's membrane as described in Example 3 above. […] The mice received an oral gavage of 0, 1.5, 5, or 10 mg/kg twice per day and for 14 days post-laser. […] Oral gavage dosing was continued twice per day for 14 days post-laser. Several mice were Is euthanized at day 7 post-laser and used for controls. At 14 days post-laser, all mice were anesthetized and systemically perfused with fluorescein-labeled dextran. Eyes were then harvested and prepared as choroidal flat mounts as described in Example 3 above.

[6] = tested on: VEGF-induced retinal vascular permeability; experiment: VEGF-induced retinal vascular permeability, intravitreal injection, rat; type: in vivo, Sprague-Dawley rats; settings: 10 μl intravitreal
Method: METHODS: Adult Sprague-Dawley rats were anesthetized with intramuscular ketamine/xylazine and their pupils dilated with topical cycloplegics. […] Ten μl of each compound was intravitreally injected in each treatment eye (n=6 eyes per group). Three days following first intravitreal injection, all animals received an intravitreal injection of 10 μl 400 ng hr VEGF in both eyes. Twenty-four hours post-injection of VEGF, intravenous infusion of 3% Evans blue dye was performed in all animals, where 50 mg/kg of Evans blue dye was injected via the lateral tail vein during general anesthesia. After the dye had circulated for 90 minutes, the rats were euthanized. The rats were then systemically perfused with balanced salt solution, and then both eyes of each rat were immediately enucleated and the retinas harvested using a surgical microscope. After measurement of the retinal wet weight, the Evans blue dye was extracted by placing the retina in a 0.2 ml formamide (Sigma) and then the homogenized and ultracentrifuged. Blood samples were centrifuged and the plasma diluted 100 fold in formamide. For both retina and plasma samples, 60 μl of supernatant was used to measure the Evans blue dye absorbance (ABS) with at 620/740 nm. The blood-retinal barrier breakdown and subsequent retinal vascular permeability as measured by dye absorbance were calculated as means±s.e.m. of net ABS/wet weight/plasma ABS. A two-tailed Student's t-test was used for pair wise comparisons between OS and OD eyes in each group. One way ANOVA was used to determine an overall difference between treatment means, where P≦0.05 was considered significant.

[7] = Pilot intraocular safety study, single intravitreal injection, adult rat; type: in vivo; settings: single intravitreal injection of 0.1 and 1.0%, up to 1 month postinjection
Text: Outcome measures were followed up to 1 month postinjection and involved clinical (fundus photography & indirect ophthalmoscopy), functional (electroretinography), and morphologic (histopathology) methods.

Sequence of FYN (P06241 whole entry): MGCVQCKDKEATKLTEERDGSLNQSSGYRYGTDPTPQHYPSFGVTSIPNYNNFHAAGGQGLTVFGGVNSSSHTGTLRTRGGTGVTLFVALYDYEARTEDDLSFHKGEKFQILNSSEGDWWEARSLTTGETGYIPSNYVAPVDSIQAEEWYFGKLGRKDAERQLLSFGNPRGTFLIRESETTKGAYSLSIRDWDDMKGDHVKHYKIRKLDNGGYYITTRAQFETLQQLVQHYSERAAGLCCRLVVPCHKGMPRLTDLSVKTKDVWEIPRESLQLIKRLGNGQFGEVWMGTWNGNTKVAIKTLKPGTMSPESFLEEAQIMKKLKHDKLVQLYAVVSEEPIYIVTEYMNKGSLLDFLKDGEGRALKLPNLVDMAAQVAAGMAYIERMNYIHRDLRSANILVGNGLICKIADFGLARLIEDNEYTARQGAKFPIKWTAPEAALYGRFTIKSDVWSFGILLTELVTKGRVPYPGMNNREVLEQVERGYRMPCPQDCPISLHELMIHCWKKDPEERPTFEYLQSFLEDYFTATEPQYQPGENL
Sequence of IGFR (P08069 31-1367): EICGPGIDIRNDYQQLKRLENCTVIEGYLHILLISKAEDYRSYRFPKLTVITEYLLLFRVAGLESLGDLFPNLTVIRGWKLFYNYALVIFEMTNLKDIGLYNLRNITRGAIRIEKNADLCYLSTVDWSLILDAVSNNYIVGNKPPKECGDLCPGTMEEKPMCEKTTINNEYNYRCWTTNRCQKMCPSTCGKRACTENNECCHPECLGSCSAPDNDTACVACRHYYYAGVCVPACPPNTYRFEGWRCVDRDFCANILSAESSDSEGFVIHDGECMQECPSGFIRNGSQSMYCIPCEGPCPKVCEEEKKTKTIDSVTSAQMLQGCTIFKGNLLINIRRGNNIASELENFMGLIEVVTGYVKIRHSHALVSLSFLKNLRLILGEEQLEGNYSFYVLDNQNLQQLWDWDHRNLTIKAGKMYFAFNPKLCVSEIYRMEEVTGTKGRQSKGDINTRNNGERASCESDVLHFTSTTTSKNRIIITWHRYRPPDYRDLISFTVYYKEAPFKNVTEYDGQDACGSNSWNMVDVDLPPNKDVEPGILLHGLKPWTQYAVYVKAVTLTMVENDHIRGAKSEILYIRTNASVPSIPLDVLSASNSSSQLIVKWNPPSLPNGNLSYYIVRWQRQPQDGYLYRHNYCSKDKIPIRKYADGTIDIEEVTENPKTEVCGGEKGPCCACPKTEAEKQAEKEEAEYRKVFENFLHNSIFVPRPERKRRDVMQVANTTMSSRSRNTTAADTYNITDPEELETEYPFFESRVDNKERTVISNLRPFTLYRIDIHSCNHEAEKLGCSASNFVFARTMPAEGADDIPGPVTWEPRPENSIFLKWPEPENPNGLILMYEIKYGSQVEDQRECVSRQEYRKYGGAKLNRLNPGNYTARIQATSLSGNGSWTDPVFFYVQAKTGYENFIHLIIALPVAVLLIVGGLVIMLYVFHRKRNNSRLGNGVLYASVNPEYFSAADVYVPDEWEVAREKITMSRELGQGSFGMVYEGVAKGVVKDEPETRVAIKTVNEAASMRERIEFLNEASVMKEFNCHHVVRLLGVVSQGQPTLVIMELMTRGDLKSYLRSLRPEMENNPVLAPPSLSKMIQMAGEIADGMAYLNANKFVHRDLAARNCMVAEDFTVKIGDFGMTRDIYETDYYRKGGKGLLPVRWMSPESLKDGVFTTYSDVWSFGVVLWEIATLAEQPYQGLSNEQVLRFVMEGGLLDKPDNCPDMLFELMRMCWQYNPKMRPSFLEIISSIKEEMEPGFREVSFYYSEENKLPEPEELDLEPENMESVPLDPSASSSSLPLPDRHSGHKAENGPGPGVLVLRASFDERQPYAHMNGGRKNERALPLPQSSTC

## Cc1ccc(F)c(NC(=O)Nc2ccc(-c3cccc4[nH]nc(N)c34)cc2)c1 [AL-39324, N-[4-[3-amino-1H-indazol-4-yl)phenyl]-N′-(2-fluoro-5-methylphenyl)urea]
[1]
  IC50: > 12.5 µM
[2]
  IC50: > 50 µM
[3]
  IC50: > 50 µM
[4]; 0.3%, 5 ul intravitreal
  CNV versus vehicle injected eyes: marginal statistical difference
  mean±s.d. CNV area/burn per mouse: 44283±28886 um^2
  median CNV area/burn per mouse: 38891 um^2
[4]; 1%, 5 ul intravitreal
  mean±s.d. CNV area/burn per mouse: 21036±3100 um^2
  median CNV area/burn per mouse: 21122 um^2
[4]; 1%
  inhibition of CNV as compared to vehicle-injected eyes: 84.1%
[4]; 3%, 5 ul intravitreal
  mean±s.d. CNV area/burn per mouse: 27288±12109 um^2
  median CNV area/burn per mouse: 22665 um^2
[4]; 3%
  inhibition of CNV as compared to vehicle-injected eyes: 83.0%
[5]; 3 mg/kg/day oral from day 7 post-laser
  regression of existing CNV: did not show a significant regression of existing CNV
[5]; 3 mg/kg/day oral
  Mean CNV: 35442 μm^2
  Median CNV: 33967 μm^2
[5]; 10 mg/kg/day oral from day 7 post-laser
  regression of existing CNV as compared to nontreated controls: 41.8%
[5]; 10 mg/kg/day oral
  Mean CNV: 29773 μm^2
  Median CNV: 27389 μm^2
[5]; 20 mg/kg/day oral from day 7 post-laser
  regression of existing CNV as compared to nontreated controls: 68.0%
[5]; 20 mg/kg/day oral
  Mean CNV: 15706 μm^2
  Median CNV: 15036 μm^2
[6]; 0.3%
  decrease of retinal vascular permeability as compared to vehicle-injected eyes: 50%
  mean ABS±s.e.m. (net ABS/wet weight/plasma ABS, Evans blue): 4.84±0.64
[6]; 1.0%
  decrease of retinal vascular permeability as compared to vehicle-injected eyes: 61%
  mean ABS±s.e.m. (net ABS/wet weight/plasma ABS, Evans blue): 3.87±0.62
[6]; 3%
  decrease of retinal vascular permeability as compared to vehicle-injected eyes: 53%
[6]; 3.0%
  mean ABS±s.e.m. (net ABS/wet weight/plasma ABS, Evans blue): 4.75±0.40
[7]
  adverse events (fundus, electroretinography, histopathology): No significant adverse events
